One assay concerns Mtb. In words: Mtb growth inhibition (MIC99) in 7H9 and GAST-Fe media. The format is cell-based, M. tuberculosis. As to conditions: Mycobacterium tuberculosis. The protocol:
Selected analogs were tested for the growth inhibition against P. falciparum and Mtb in both rich media (7H9) and minimal media (GAST-Fe) following reported procedures.

The subject of a further assay is P. falciparum. In words: Growth inhibition against P. falciparum. Type of assay: cell-based. The following applies: for IC50: Plasmodium falciparum.
The next assay deals with HepG2 cells. In words: HepG2 cell inhibition (cytotoxicity) assay. Type of assay: cell-based. As to conditions: Homo sapiens, HepG2; Table 6, cytotoxicity; read-out: HepG2 IC50. The protocol: For cytotoxicity assays, HepG2 cells (ATCC HB-8065) were grown in DMEM supplemented with 4 mM L-glutamine (Gibco #11966-025) with either 4.5 g/L D-glucose or 1.8 g/L galactose as carbon source. Cells were trypsinized, resuspended in the respective medium (DMEM/glutamine/glucose or DMEM/glutamine/galactose) to 4×10^5 cells/mL and 50 μL/well transferred to flat-bottom white opaque tissue culture plates (Falcon #353296) containing 50 μL/well of the respective medium with test compound. Compound concentrations were two-fold dilutions ranging from 50 μM to 0.049 μM as well as the drug-free DMSO-only control. All concentrations were tested in duplicate for each carbon source. After 24 h incubation at 5% CO2, 37° C., 10 μL/well of Celltiter-Glo reagent (Promega #G9241) was added and luminescence recorded after 20 min incubation in the dark.

The subject of assay [1] is P. falciparum had1 mutant strain. The format is cell-based. The following applies: in words.
The target of a further assay is T1, P. falciparum DXR (Plasmodium falciparum, UniProt Q8IKG4).
T1 sequence (Q8IKG4 73-488): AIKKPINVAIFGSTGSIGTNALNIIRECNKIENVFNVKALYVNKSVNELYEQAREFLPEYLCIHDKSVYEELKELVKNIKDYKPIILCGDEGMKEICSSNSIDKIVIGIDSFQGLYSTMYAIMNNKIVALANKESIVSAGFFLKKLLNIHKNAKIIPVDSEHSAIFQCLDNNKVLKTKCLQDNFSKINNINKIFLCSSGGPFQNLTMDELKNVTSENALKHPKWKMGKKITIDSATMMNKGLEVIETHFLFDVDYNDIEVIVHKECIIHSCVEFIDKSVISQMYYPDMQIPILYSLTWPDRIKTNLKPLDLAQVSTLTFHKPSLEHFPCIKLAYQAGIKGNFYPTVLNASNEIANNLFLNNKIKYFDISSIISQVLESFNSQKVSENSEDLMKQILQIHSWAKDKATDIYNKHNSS
In words: Inhibition of P. falciparum DXR enzyme. Type of assay: biochemical. The following applies: for Pf DXR (% Residue): percent remaining enzyme activity at 100 μM compound; for IC50: Table 2, phosphonic acid salts, read-out: Pf DXR IC50.

Setting [2] is: minimal media (GAST-Fe), read-out: Mtb MIC99 Gast/Fe.
[3] abbreviates: rich media (7H9), read-out: Mtb MIC99 7H9.
The mark [4] stands for this setting: Table 6, growth inhibition, read-out: P.f. IC50.
Setting [5] is: Table 4, growth inhibition, read-out: Pf IC50.
The mark [6] stands for this setting: Table 3, diethyl phosphonate analogs.
The mark [7] stands for this setting: Table 3, diethyl phosphonate analogs, read-out: P.f. IC50.

Converted amounts (≈) assume the structure as drawn. Where two headings read alike, the source gives them in different places.

For orientation: IC50 means the concentration that inhibits the measured activity by half. Take `CCOP(=O)(/C=C/CN(O)C(=O)c1ccccc1)OCC` [Compound 31a, Diethyl [(1E)-3-(N-hydroxy-1-phenylformamido)prop-1-en-1-yl]phosphonate]: the MIC99 in the assay on Mtb (setting [2]) and in the assay with Mtb (setting [3]) was > 100 µg/mL in each case. The IC50 with P. falciparum (setting [4]) is > 100 µg/mL.

Take `CC(C)(C)C(=O)OCOP(=O)(/C=C/CN(O)C(=O)c1ccccc1)OCOC(=O)C(C)(C)C` [Compound 33a, [({[(2,2-dimethylpropanoyl)oxy]methoxy}[(1E)-3-(N-hydroxy-1-phenylformamido)prop-1-en-1-yl]phosphoryl)oxy]methyl 2,2-dimethylpropanoate]: the IC50 with HepG2 cells was > 50 µM; with P. falciparum (setting [4]), 0.097 µg/mL. The MIC99 in the assay with Mtb (setting [3]) was found to be 50 µg/mL (≈ 103 µM). For the same compound, the “resistance of had1 parasites compared with wild-type” value in assay [1] was “more resistant”.

Regarding `CC(=O)N(C/C=C/P(=O)(OCOC(=O)C(C)(C)C)OCOC(=O)C(C)(C)C)OCc1ccc(-c2ccccc2)cc1` [Compound 19g, [({[(2,2-dimethylpropanoyl)oxy]methoxy}[(1E)-3-{N-[(4-phenylphenyl)methoxy]acetamido}prop-1-en-1-yl]phosphoryl)oxy]methyl 2,2-dimethylpropanoate], the IC50 with P. falciparum (setting [5]) is 43.2 µM. Turning to `CCOP(=O)(/C=C/CN(O)C=O)OCC` [Compound 11a, Diethyl [(1E)-3-(N-hydroxyformamido)prop-1-en-1-yl]phosphonate], the “P.f. IC50” value in the assay with P. falciparum (setting [6]) is >100 µg/mL. `CC(C)(C)C(=O)OCOP(=O)(/C=C/CN(O)C(=O)CCCc1ccccc1)OCOC(=O)C(C)(C)C` [Compound 33d, [({[(2,2-dimethylpropanoyl)oxy]methoxy}[(1E)-3-(N-hydroxy-4-phenylbutanamido)prop-1-en-1-yl]phosphoryl)oxy]methyl 2,2-dimethylpropanoate]: the MIC99 in the assay with Mtb (setting [2]) is 37 µg/mL (≈ 70.1 µM); in the assay on Mtb (setting [3]), > 100 µg/mL. Further, in the assay on P. falciparum (setting [4]), the half-maximal inhibitory concentration (IC50) was 2.4 µg/mL.

`O=C(N(O)C/C=C/P(=O)([O-])O)C(F)(F)F.[Na+]` [Compound 12b, Sodium hydrogen [(1E)-3-(2,2,2-trifluoro-N-hydroxyacetamido)prop-1-en-1-yl]phosphonate]: the “Pf DXR (% Residue)” value at P. falciparum DXR is “(36.96) %”. In addition, the IC50 in the assay on P. falciparum (setting [5]) was found to be 113 µM. Take `CC(=O)N(C/C=C/P(=O)(O)O)OCc1ccc(-c2ccccc2)cc1` [Compound 16g, Sodium hydrogen [(1E)-3-{N-[(4-phenylphenyl)methoxy]acetamido}prop-1-en-1-yl]phosphonate]: the concentration for half-maximal inhibition (IC50) at P. falciparum DXR was 4.53 µM; in the assay on P. falciparum (setting [5]) it was 2.3 µM. The corresponding values for `CC(=O)N(C/C=C/P(=O)(O)O)OC(C)c1ccccc1` (stereo not shown) [Compound 16d, Sodium hydrogen [(1E)-3-[N-(1-phenylethoxy)acetamido]prop-1-en-1-yl]phosphonate] are 2.54 µM and 1.2 µM. As to `CC(=O)N(C/C=C/P(=O)(OCOC(=O)C(C)(C)C)OCOC(=O)C(C)(C)C)OCc1ccc(C(C)C)cc1` [Compound 19e, [({[(2,2-dimethylpropanoyl)oxy]methoxy}[(1E)-3-(N-{[4-(propan-2-yl)phenyl]methoxy}acetamido)prop-1-en-1-yl]phosphoryl)oxy]methyl 2,2-dimethylpropanoate], the IC50 in the assay on P. falciparum (setting [5]) is 55.1 µM. In the case of `CCOP(=O)(/C=C/CN(OCc1ccc2ccccc2c1)C(C)=O)OCC` [Compound 15f, Diethyl [(1E)-3-{N-[(naphthalen-2-yl)methoxy]acetamido}prop-1-en-1-yl]phosphonate], in the assay with P. falciparum (setting [7]), the 50% inhibitory concentration (IC50) stood at 29.6 µg/mL. As to `CC(C)(C)C(=O)OCOP(=O)(/C=C/CN(O)C(=O)C(F)(F)F)OCOC(=O)C(C)(C)C` [Compound 18b, [({[(2,2-dimethylpropanoyl)oxy]methoxy}[(1E)-3-(2,2,2-trifluoro-N-hydroxyacetamido)prop-1-en-1-yl]phosphoryl)oxy]methyl 2,2-dimethylpropanoate], in the assay with P. falciparum (setting [5]), the half-maximal inhibitory concentration (IC50) was found to be 14.2 µM.

Consider `CCOP(=O)(/C=C/CN(O)C(=O)Cc1ccccc1)OCC` [Compound 31b, Diethyl [(1E)-3-(N-hydroxy-2-phenylacetamido)prop-1-en-1-yl]phosphonate], for which the MIC99 in the assay on Mtb (setting [3]) is > 100 µg/mL. The half-maximal inhibitory concentration (IC50) in the assay with P. falciparum (setting [4]) came out at 110 µg/mL. In the case of `CC(=O)N(C/C=C/P(=O)([O-])O)OCc1ccc(C(C)C)cc1.[Na+]` [Compound 16e, Sodium hydrogen [(1E)-3-(N-{[4-(propan-2-yl)phenyl]methoxy}acetamido)prop-1-en-1-yl]phosphonate], the results for the IC50 at P. falciparum DXR and in the assay with P. falciparum (setting [5]) were 2.11 µM and 1.1 µM, respectively. Also, the “resistance of had1 parasites compared with wild-type” value in assay [1] is “more resistant”. On to `COC(=O)N(O)C/C=C/P(=O)(O)O` [Compound 12c, Diammonium [(1E)-3-[hydroxy(methoxycarbonyl)amino]prop-1-en-1-yl]phosphonate], for which the concentration for half-maximal inhibition (IC50) is 14.5 µM on P. falciparum DXR and 28.6 µM in the assay on P. falciparum (read-out: Pf IC50). As for `CC(C)(C)C(=O)OCOP(=O)(/C=C/CN(O)C(=O)Cc1ccccc1)OCOC(=O)C(C)(C)C` [Compound 33b, [({[(2,2-dimethylpropanoyl)oxy]methoxy}[(1E)-3-(N-hydroxy-2-phenylacetamido)prop-1-en-1-yl]phosphoryl)oxy]methyl 2,2-dimethylpropanoate], the MIC99 in the assay with Mtb (setting [2]) stood at 74 µg/mL (≈ 148 µM); in the assay with Mtb (setting [3]), 100 µg/mL (≈ 200 µM). In the assay on P. falciparum (setting [4]), the IC50 was 0.152 µg/mL. Turning to `CCOP(=O)(/C=C/CN(O)C(=O)CCCc1ccccc1)OCC` [Compound 31d, Diethyl [(1E)-3-(N-hydroxy-4-phenylbutanamido)prop-1-en-1-yl]phosphonate], the MIC99 in the assay on Mtb (setting [2]) and in the assay with Mtb (setting [3]) was > 100 µg/mL throughout. The half-inhibitory concentration (IC50) with P. falciparum (setting [4]) was 11.1 µg/mL. As for `CC(=O)N(C/C=C/P(=O)(OCOC(=O)C(C)(C)C)OCOC(=O)C(C)(C)C)OCc1ccc2ccccc2c1` [Compound 19f, [({[(2,2-dimethylpropanoyl)oxy]methoxy}[(1E)-3-{N-[(naphthalen-2-yl)methoxy]acetamido}prop-1-en-1-yl]phosphoryl)oxy]methyl 2,2-dimethylpropanoate], in the assay with P. falciparum (setting [5]), the IC50 came to 49.9 µM. As to `CCOP(=O)(/C=C/CN(OCc1ccc(C(C)C)cc1)C(C)=O)OCC` [Compound 15e, Diethyl [(1E)-3-(N-{[4-(propan-2-yl)phenyl]methoxy}acetamido)prop-1-en-1-yl]phosphonate], the concentration for half-maximal inhibition (IC50) in the assay on P. falciparum (setting [7]) came out at 21.1 µg/mL.

Turning to `CC(=O)N(C/C=C/P(=O)([O-])O)OCc1ccc2ccccc2c1.[Na+]` [Compound 16f, Sodium hydrogen [(1E)-3-{N-[(naphthalen-2-yl)methoxy]acetamido}prop-1-en-1-yl]phosphonate], the “Pf DXR (% Residue)” value on P. falciparum DXR is given as “(25) %”. Further, the IC50 in the assay with P. falciparum (setting [5]) was determined as 26 µM.

Turning to `CCOP(=O)(/C=C/CN(O)C(=O)C(F)(F)F)OCC` [Compound 11b, Diethyl [(1E)-3-(2,2,2-trifluoro-N-hydroxyacetamido)prop-1-en-1-yl]phosphonate], the “P.f. IC50” value in the assay with P. falciparum (setting [6]) is >100 µg/mL.

Take `CCOP(=O)(/C=C/CN(O)C(=O)CCc1ccccc1)OCC` [Compound 31c, Diethyl [(1E)-3-(N-hydroxy-3-phenylpropanamido)prop-1-en-1-yl]phosphonate]: the MIC99 with Mtb (setting [2]) and in the assay with Mtb (setting [3]) was > 100 µg/mL in each case. The half-maximal inhibitory concentration (IC50) with P. falciparum (setting [4]) was > 100 µg/mL. With `CCOP(=O)(/C=C/CN(OC(C)c1ccccc1)C(C)=O)OCC` (stereo not shown) [Compound 15d, Diethyl [(1E)-3-[N-(1-phenylethoxy)acetamido]prop-1-en-1-yl]phosphonate], the IC50 with P. falciparum (setting [7]) turned out to be 23.5 µg/mL. `CCOP(=O)(/C=C/CN(O)C(=O)OC)OCC` [Compound 11c, Methyl N-[(2E)-3-(diethoxyphosphoryl)prop-2-en-1-yl]-N-hydroxycarbamate]: the “P.f. IC50” value in the assay on P. falciparum (setting [6]) was >100 µg/mL. As to `COC(=O)N(O)C/C=C/P(=O)(OCOC(=O)C(C)(C)C)OCOC(=O)C(C)(C)C` [Compound 18c, [({[(2,2-dimethylpropanoyl)oxy]methoxy}[(1E)-3-[hydroxy(methoxycarbonyl)amino]prop-1-en-1-yl]phosphoryl)oxy]methyl 2,2-dimethylpropanoate], in the assay with P. falciparum (setting [5]), the concentration for half-maximal inhibition (IC50) was 23.7 µM. As to `CCOP(=O)(/C=C/CN(OCc1ccc(-c2ccccc2)cc1)C(C)=O)OCC` [Compound 15g, Diethyl [(1E)-3-{N-[(4-phenylphenyl)methoxy]acetamido}prop-1-en-1-yl]phosphonate], in the assay on P. falciparum (setting [7]), the IC50 was 13.7 µg/mL.
